Patent US20240026383A1 (priority 2020, published 2024)
“Also recorded” adds a separate entry of the source.

Tests used:
[1] = tested on: LacZ gene of E. coli MG1655; experiment: SIBR-Cas genome editing (HR and CRISPR-Cas counterselection) of LacZ; type: cell-based
Description: For efficient genome editing in bacteria, HR should precede CRISPR-Cas counterselection. To assess whether tight control over CRISPR-Cas targeting could bolster the efficiency of CRISPR-Cas mediated genome editing by allowing more time for HR to occur, we used SIBR-Cas and targeted the LacZ gene of E. coli MG1655 for knock-out through HR and CRISPR-Cas counterselection using a blue/white screening colony assay. To facilitate HR, we added 500 bp up- and down-stream homology arms to the plasmids expressing the four SIBR-Cas (Int1-4) and WT-FnCas12a variants that target the LacZ gene. After 1 hour recovery, we induced the expression of the SIBR-Cas variants to counterselect the WT from the mutant colonies.
Since disruption of LacZ can also be achieved through non-HR mediated approaches (spontaneous mutations or occasional error-prone DNA repair following DNA cleavage by Cas12a), not all gene deletions can be screened phenotypically. Therefore, we repeated our experiment, but X-gal was omitted from the medium to eliminate the possibility of false-positives. Randomly selected colonies that were obtained were screened by PCR for LacZ deletion showing a 0%, 0%, 29% and 38% editing efficiency for Int1, Int2, Int3 and Int4 SIBR-Cas variants, respectively (FIG. 24C). […] The observed decrease in editing efficiency (compared to the blue/white screening) might be attributed to spontaneous LacZ mutations that escape CRISPR-Cas counterselection. Nevertheless, a high editing efficiency (38%) was observed when SIBR-Cas Int4 was used without the use of recombinases or any other complex systems.

LacZa of E. coli MG1655 = experiment: FnCas12a targeting assay with Tagged-T4 td intron variants (CFU drop plating); type: cell-based; conditions: T crRNA, both induced and non-induced selective media
Description: Four different intron variants (as shown previously in FIG. 8), referred to as “Tag1”, “Tag2”, etc. (Tag1: −4P, −5P, −6P; Tag2: −4W, […] −4W, −5W, −6P; Tag4: −4M, −5P, −6P) are inserted directly after the start codon of the GOI (FnCas12a gene). The 5′ exon sequences of the four different tags are indicated: Tag1: TCCtcaGGT (SEQ ID NO: 7); Tag2: TCCtcgGGT (SEQ ID NO: 8); Tag3: TCCttgGGT (SEQ ID NO: 9); Tag4: TCCtctGGT (SEQ ID NO: 10). The 3′ exon sequence is conserved amongst the 4 different tags and indicated as CTA (SEQ ID NO: 12). The amino acids corresponding to the Tag sequences are indicated with capital bold letters above the Tagged-introns. Intron-less (wild-type) FnCas12a was used as a reference for comparison. Efficiency of targeting of the different Tagged-T4 td intron variants was assessed by using either a LacZa targeting (T) or a non-targeting (NT) crRNA and by comparing the amount of colony forming units (CFUs) of transformed E. coli MG1655 per μg of plasmid used (CFUs μg^−1). CFU was determined by the number of colonies observed.
Electrocompetent E. coli MG1655 were transformed (2.5 kV, 200 Ω, 25 μF) with 10 ng μL^−1 of the respective plasmid and recovered for 1 hour in 500 μL LB medium [10 g L^−1 tryptone (Oxoid), 5 g L^−1 yeast extract (BD), 10 g L^−1 NaCl (Acros)] at 37° C. Then, the recovered culture was serially diluted and drop plated on selective (50 μg mL^−1 kanamycin) LB agar plates in the presence or absence of 2 mM theophylline. The agar plates were incubated at 30° C. for 24 hours and the CFUs were counted.
E. coli MG1655 was transformed with a series of plasmids (listed in Table 4) and serially diluted and drop plated on selective (kanamycin) LB media with or without 2 mM theophylline. […] The effect of the CFU reduction was more apparent for the Tag4-intron where colonies could only be observed at the 10° dilution, followed by Tag3-intron (10^−1) then Tag2-intron (10^−2) and finally Tag1-intron ([…]).

EndA of P. putida = experiment: FnCas12a targeting assay with Tagged-T4 td intron variants in P. putida; type: cell-based, Pseudomonas putida; conditions: media with or without theophylline
Procedure: Plasmids bearing the four T4 td intron-FnCas12a or the intron-less FnCas12a and an EndA T or an NT crRNA were transformed to P. putida and the targeting efficiency was assessed by comparing the CFUs μg^−1 in the presence or absence of the theophylline inducer.
In more detail, electrocompetent P. putida cells were transformed (2.5 kV, 200 Ω, 25 μF) with 200 ng plasmid and recovered in 1 ml LB for 2 hours at 30° C. Then, the culture was serially diluted and drop plated on selective (50 μg mL^−1 kanamycin) LB agar plates in the presence or absence of 2 mM theophylline. The agar plates were incubated at 30° C. for 24 hours and the CFUs were counted.
P. putida was transformed with a series of plasmids (listed in Table 6) and serially diluted and drop plated on selective (kanamycin) LB media with or without 2 mM theophylline. […] However, for P. putida, the effect of induction was more apparent than E. coli as no CFUs could be observed for transformants bearing the T crRNA and plated on selective media with theophylline. […] Collectively, the Tagged-intron constructs work efficiently in P. putida and can be used for genome engineering.

Flavobacterium IR1 = experiment: Theophylline toxicity assay on growth; type: cell-based; conditions: 24 hours at 25° C.
Procedure: Because theophylline uptake from IR1 appears to be a prerequisite, a toxicity assay was carried out on the growth of IR with varying theophylline concentrations ([…]) grown for 24 hours at 25° C. […] The arrow indicates the time when theophylline was added to the medium. […] Therefore, 2 mM of theophylline was used for inducing the intron splicing in following experiments.

Compound | colonies obtained ([1]; LacZ targeting) | unbiased editing efficiency (LacZ deletion by PCR of randomly selected colonies) ([1]; X-gal omitted from the medium) [%] | editing efficiency: percentage of white colonies from total CFUs mL-1 ([1]; blue/white screening, LacZ targeting, induced after 1 hour recovery) [%] | CFUs (LacZa of E. coli MG1655) | CFUs (EndA of P. putida) | growth of IR1 (Flavobacterium IR1; 5 and 10 mM of theophylline) | growth of IR1 (Flavobacterium IR1; theophylline concentration of up to 2 mM)
WT-FnCas12a: Intron-less (wild-type) FnCas12a used as a reference for comparison [reference compound] | no colonies; also recorded: did not yield any colonies | 0 | 0 | complete elimination of CFUs | did not have any CFUs |  | 
Cn1c(=O)c2[nH]cnc2n(C)c1=O [Theophylline, theophylline] |  |  |  |  |  | decreased the growth | did not affect significantly the growth
